Laboratory results taken from article PMC5972026 (Journal of medicinal chemistry, 2017).
Entries after “also recorded” stand apart in the source; their conditions may differ. Counter-ions that a name gives are not always drawn.

Columns and labels:
A/M2 V27A mutant channel [1] = target: T1, A/M2 V27A mutant channel (Influenza A virus, UniProt P0DOF5, V27A); conditions: cited from earlier work
A/M2 S31N mutant channel = conditions: cited from earlier work
A/M2 V27A mutant channel [2] = target: T1, A/M2 V27A mutant channel; type: cell-based
[3] = test system: A/WSN/33 virus (H1N1 subtype), N31S/V27A M2; type: cell-based, influenza A virus

SMILES	Binding behaviour (A/M2 V27A mutant channel [2])	Antiviral activity in 46-h PRA [3]	also measured
NC12CC3CC(CC(C3)C1)C2 [Amantadine, 1-aminoadamantane]	–	–	Activity against the V27A mutant (A/M2 V27A mutant channel [1]): totally inactive; IC50 (A/M2 S31N mutant channel): 200 µM; Inhibition by 100 μM for 2 min (%) (A/M2 V27A mutant channel [2]): 8.9 ± 1.0%
C1CCC(C23CC4CC(CC(C4)C2)C3)NC1 (stereo not drawn) [Compound 8, 2-(1-adamantyl)piperidine hydrochloride]	no remarkable binding at all	inactive	Time after which inhibition is at steady-state (A/M2 V27A mutant channel [2]): ≤ 1 min
C1CC(C2C3CC4CC(C3)CC2C4)CCN1 (stereo not drawn) [Compound 3, 4-(Adamantan-2-yl)piperidine hydrochloride]	–	inactive	–
C1CC(C23CC4CC(CC(C4)C2)C3)CCN1 [Compound 2, 4-(1-adamantyl)piperidine hydrochloride]	fast and weak	weak activity; also recorded: minimal antiviral activity	–
N=C(N)N1CCC(C23CC4CC(CC(C4)C2)C3)CC1 [Compound 7, N-amidyl-4-(1-adamantyl)piperidine hydrochloride]	fast and weak binder	inactive	–
N=C(N)N1CCC(C=C2C3CC4CC(C3)CC2C4)CC1 [Compound 19, 4-[(adamantan-2-ylidene)methyl]piperidine-1-carboximidamide hydrochloride]	–	inactive	–
